ChEMBL document CHEMBL3507680, “University of Dundee, Gates Library screen for HepG2 cell viability”

Assay: Human HepG2 cell viability assay in 384 well format
Assay type: toxicity, cell-based
Parameters: dose 125 nL, time 70.5 hour; concentration not given beside the values
Details: HepG2 cells, read-out: Inhibition

NCCn1nc(C2CCN(C(=O)CC3CCCCC3)C2)c2nccnc21 (configuration not stated)
cytotoxicity at 70.5 h: -7.33%

Cn1c(=O)[nH]c(=O)c2c1nc1n2CC(c2ccc(Cl)cc2)O1 (configuration not stated)
cytotoxicity at 70.5 h: 43%

COc1cccc(Nc2nc(C3CCNCC3)c3sc(C)c(C)n23)c1
cytotoxicity at 70.5 h: -7.32%

CCCC(=O)N1CCCC(c2ccccn2)C1 (configuration not stated)
cytotoxicity at 70.5 h: -1.3%

O=C1COC2(CCN(S(=O)(=O)C3CC3)CC2)CN1c1ccsc1
cytotoxicity at 70.5 h: -17.5%

Cc1ncc2c(n1)CN(Cc1nc(-c3ccsc3)no1)CC2
cytotoxicity at 70.5 h: -21.5%

O=C(Nc1ccc(-n2ccnc2)c(F)c1)C1CCN(C(=O)C2CC2)CC1
cytotoxicity at 70.5 h: -1.97%

CCC(CC)C(=O)NS(=O)(=O)c1ccc(C#N)cc1C(F)(F)F
cytotoxicity at 70.5 h: -0.398%

CCC(O)CNc1ccc(-c2nc(CC(C)C)no2)cn1 (configuration not stated)
cytotoxicity at 70.5 h: -14.3%

CCc1cnc(NCc2nc(CSC)no2)nc1
cytotoxicity at 70.5 h: 10.1%

CC(NCc1cccc(COC2CCCC2)c1)c1cnn(C)c1 (configuration not stated)
cytotoxicity at 70.5 h: -3.04%

CC(C)NC(=O)NC[C@@]1(COc2cnccn2)C[C@@H](O)[C@@H](O)C1
cytotoxicity at 70.5 h: 3.08%

Cc1cccc(C)c1NC(=O)CN(C)C(C)c1nc(C(C)(C)C)no1 (configuration not stated)
cytotoxicity at 70.5 h: -88.9%

CCSc1cncc(N2CCC(NC(=O)C3CCCCC3)CC2)n1
cytotoxicity at 70.5 h: -13.5%

O=S(=O)(Cc1c(F)cccc1F)NCCOc1cccnc1
cytotoxicity at 70.5 h: 17.9%

CCNc1nc(C(=O)N(C)Cc2nc(CC)no2)cs1
cytotoxicity at 70.5 h: -109%

O=c1n(CC2CCCO2)nc(CC2CCNCC2)n1-c1ccccc1 (configuration not stated)
cytotoxicity at 70.5 h: -11%

O=C(NCc1ccc(F)cc1F)C(c1cccnc1)N1CCOCC1 (configuration not stated)
cytotoxicity at 70.5 h: -0.235%

COCCN1C[C@@H]2CN(C(=O)[C@H]3CCCO3)C[C@@H]2C1=O
cytotoxicity at 70.5 h: -15.9%

O=C(c1cccnc1)N1CCN2C[C@H](Oc3cncnc3)C[C@H]2C1
cytotoxicity at 70.5 h: -1.31%

COCCC(=O)N1CCC2(CN(Cc3ccc(OC)c(F)c3)C2)C1
cytotoxicity at 70.5 h: -9.17%

Cc1cc(C(=O)N(C)Cc2cccs2)nc(N2CCCC2)n1
cytotoxicity at 70.5 h: -6.81%

CC(C)NC(=O)c1nnn(-c2cccc(F)c2)c1C1CC1
cytotoxicity at 70.5 h: -6.18%

O=C(Nc1ccccc1)N1CCn2c(nnc2C2CCNCC2)C1
cytotoxicity at 70.5 h: -9.29%

O=S(=O)(C1CC1)N1CC[C@]2(C[C@@H](Oc3ccccn3)CO2)C1
cytotoxicity at 70.5 h: -18.9%

CCN(Cc1ccoc1)C(=O)NC1CCN(C(=O)OC(C)(C)C)C1 (configuration not stated)
cytotoxicity at 70.5 h: -2.35%

Cc1nc(-c2c(C)noc2C)cc(C2CCN(CC(=O)N(C)C)CC2)n1
cytotoxicity at 70.5 h: 5.85%

CC(SCCC(=O)NC(N)=O)c1c(F)cccc1F (configuration not stated)
cytotoxicity at 70.5 h: -10.5%

Cn1ccnc1CN1CCCN(C(=O)COC2CCCC2)CC1
cytotoxicity at 70.5 h: -2.98%

O=C(O)CC1COCCN1Cc1ccccc1OCCc1ccccc1 (configuration not stated)
cytotoxicity at 70.5 h: -3.62%

CNc1ncc(C(=O)N[C@H]2CN(CCCSC)C[C@@H]2C2CC2)cn1
cytotoxicity at 70.5 h: -5.85%

CCN(CC)c1ncc(Cl)c(C(=O)NC2CCC(O)CC2)n1 (configuration not stated)
cytotoxicity at 70.5 h: -0.431%

COc1ccc(CN2CCOCC3(CCN(C4CCOCC4)C3)C2)cc1 (configuration not stated)
cytotoxicity at 70.5 h: -5.87%

CC1(C)CN=C(N2CCN(CCCN3CCOCC3)CC2)S1
cytotoxicity at 70.5 h: -8.84%

Cc1nc(C)n(CC2CN(c3ncccn3)Cc3nccn3C2)n1 (configuration not stated)
cytotoxicity at 70.5 h: -8.98%

c1cncc(COC[C@H]2CC[C@H]3[C@H](CCN3Cc3nccs3)O2)c1
cytotoxicity at 70.5 h: -0.559%

CN(Cc1ccccc1CN1CCCC1)C(=O)c1c[nH]c(=O)[nH]1
cytotoxicity at 70.5 h: -10.8%

CCc1nnc(Nc2cc(C)nc(C3CN(C(C)=O)CCO3)c2)s1 (configuration not stated)
cytotoxicity at 70.5 h: 0.483%

COc1ccccc1C(C)NC(=O)N1CCN(Cc2ccc(Br)s2)CC1 (configuration not stated)
cytotoxicity at 70.5 h: 5.11%

CC(C)Cc1noc(CN(C)C2CCS(=O)(=O)C2)n1 (configuration not stated)
cytotoxicity at 70.5 h: -3.8%

CCSc1ccc(C(=O)N2CCCCC2C(=O)N2CCCC2)cn1 (configuration not stated)
cytotoxicity at 70.5 h: -0.733%

CCOc1ccc(S(=O)(=O)N(C)Cc2cnn(CC)c2)cc1
cytotoxicity at 70.5 h: -2.15%

Cc1nc(NCCc2ccccc2)cc(C(=O)N2CCCCC2)n1
cytotoxicity at 70.5 h: -0.559%

NC(=O)c1cccc(C(=O)N2CCCC(n3ccnc3)C2)c1 (configuration not stated)
cytotoxicity at 70.5 h: -3.58%

O=C(c1ccccc1C(F)(F)F)N1CC[C@@H](N2CCC(O)CC2)[C@H](O)C1
cytotoxicity at 70.5 h: -1.82%

O=C(CCc1ccccc1)Nc1ncccc1OC(F)F
cytotoxicity at 70.5 h: -0.101%

CN1CCN(Cc2ccncc2)C(=O)C12CCN(Cc1ccsc1)CC2
cytotoxicity at 70.5 h: 2.26%

O=C1CN(C(=O)CCn2c(C(F)(F)F)cc3cccnc32)CCN1
cytotoxicity at 70.5 h: 4.91%

Cc1cc(N2CCOC(CN)C2)nc(-c2ccccc2)n1 (configuration not stated)
cytotoxicity at 70.5 h: -10.8%

CCN1CCN(Cc2nc(Cc3ccccc3)n[nH]2)CC1
cytotoxicity at 70.5 h: -5.11%

O=C(c1ccc2c(c1)OCCCO2)N1CCCC(n2cccn2)C1 (configuration not stated)
cytotoxicity at 70.5 h: 0.26%

CC(C)(C)c1n[nH]c(C2CN(C(=O)c3ccsc3)CCO2)n1 (configuration not stated)
cytotoxicity at 70.5 h: -16.5%

c1ccc(-c2nnc(CN3CCCC(Cn4cncn4)C3)o2)cc1 (configuration not stated)
cytotoxicity at 70.5 h: -7.29%

FC(F)(F)Sc1ccccc1NCc1nc(C2CC2)no1
cytotoxicity at 70.5 h: 16.7%

O=C(O)c1ccccc1-c1cnc(CNC(=O)C2CCOCC2)nc1
cytotoxicity at 70.5 h: 14%

c1cncc(-c2nc(C3CC3)ncc2-c2ccnc(N3CCCC3)n2)c1
cytotoxicity at 70.5 h: -2.86%

Cc1noc(C2CCN(CC(=O)N3CCNC(=O)C3)CC2)n1
cytotoxicity at 70.5 h: 17.7%

Cc1ccc(N(CC(=O)N2CCCCC2)C(=O)C2COCCO2)cc1 (configuration not stated)
cytotoxicity at 70.5 h: -2.98%

CCNC(=O)C1CCCN(C(=O)Nc2cc(C#N)ccc2OCC)C1 (configuration not stated)
cytotoxicity at 70.5 h: 0.887%

CC(C)Cn1ccnc1CNC(=O)NC(C)(C)c1nccs1
cytotoxicity at 70.5 h: 19.7%

CCNC(c1ccc(Cl)cc1)c1cccnc1 (configuration not stated)
cytotoxicity at 70.5 h: 34.5%

Cn1cnc(-c2nc(C(=O)NC3CC3)c3ccccn23)c1
cytotoxicity at 70.5 h: -1.89%

Cc1ccccc1CN1CCOC(c2nccc(CN(C)C)n2)C1 (configuration not stated)
cytotoxicity at 70.5 h: -8.08%

Cc1ccc(-c2nc(CN3CC(n4nc(C)cc4C)C3)no2)cc1
cytotoxicity at 70.5 h: -8.79%

CCc1nc(C)c(-c2nccn2CC2CCN(C3CCCC3)CC2)[nH]1
cytotoxicity at 70.5 h: -2.56%

Cc1noc(C2CCCN(CC(=O)N3CCc4ccccc4C3)C2)n1 (configuration not stated)
cytotoxicity at 70.5 h: -1.69%

CCN1CCC(N2CCC(C(=O)N(C)C)CC2)CC1
cytotoxicity at 70.5 h: -5.59%

CN1CC[C@H]2CN(C(=O)COCc3nc4cc(F)ccc4[nH]3)C[C@H]21
cytotoxicity at 70.5 h: 20.4%

COc1ccc(NC(=O)N2CCCC2c2ccco2)cc1OC (configuration not stated)
cytotoxicity at 70.5 h: -0.202%

O=C(NCCc1ccccn1)c1n[nH]c2c1CCC2
cytotoxicity at 70.5 h: -5.6%

CNC(=O)c1nc2c(s1)CCN(C(=O)c1ccccc1)CC2
cytotoxicity at 70.5 h: -9.7%

Cn1c(C(F)(F)F)nn(CCNC(=O)c2cnc3ccccc3n2)c1=O
cytotoxicity at 70.5 h: -2.86%

OC[C@H]1CN(C2Cc3ccccc3C2)C[C@H]1CN1CCC(O)CC1
cytotoxicity at 70.5 h: -7.74%

COCC(=O)N1CCN(C(=O)C2CCCCC2)[C@@H](C(=O)OC)C1
cytotoxicity at 70.5 h: 1.64%

Cc1cnn(CC(C)NCC(=O)NC2CCOCC2)c1 (configuration not stated)
cytotoxicity at 70.5 h: 18.5%

COc1c(C)cnc(CNC(=O)c2cnc3onc(C)c3c2)c1C
cytotoxicity at 70.5 h: 12.5%

Cn1c(Cn2ccnc2)nnc1C1CCCN(c2ncccn2)C1 (configuration not stated)
cytotoxicity at 70.5 h: -9.36%

Cn1cc(CCC(=O)N2C[C@H]3CC[C@@H]2CN(Cc2cccnc2)C3)cn1
cytotoxicity at 70.5 h: 12.2%

Cc1ccccc1C(=O)N1CCOC(c2ncc(CN(C)C)[nH]2)C1 (configuration not stated)
cytotoxicity at 70.5 h: -6.83%

CSCC[C@@H](CO)Nc1ccc(-c2nc(-c3ccccc3F)no2)cn1
cytotoxicity at 70.5 h: -6.28%

Cc1cnccc1CN(C)C(=O)C(C)(C)NC(=O)c1cccs1
cytotoxicity at 70.5 h: 0.902%

CCn1c(=O)n(Cc2nc(C3CC3)no2)c2ccccc21
cytotoxicity at 70.5 h: 23.4%

Cc1ccc(CN2C[C@@H]3C[C@H](C(=O)NCC4CC4)N(C)[C@@H]3C2)o1
cytotoxicity at 70.5 h: 10.1%

CN1CCCC2(CCN(C(=O)c3ccncc3)C2)C1 (configuration not stated)
cytotoxicity at 70.5 h: 7.77%

CCN(CC)S(=O)(=O)CCNC(=O)N(C)C(C)c1ccccn1 (configuration not stated)
cytotoxicity at 70.5 h: -8.05%

Cc1cc(C)c(C#N)c(N2CCC3(CCCN(CCO)C3=O)C2)n1 (configuration not stated)
cytotoxicity at 70.5 h: 12.1%

O=C(CCn1cnnn1)N1CCCC(CO)(CCCc2ccccc2)C1 (configuration not stated)
cytotoxicity at 70.5 h: -1.63%

NC(=O)C1(CCCc2cccnc2)CCCN(c2ncccn2)C1 (configuration not stated)
cytotoxicity at 70.5 h: -13.9%

COc1ccnc(NC(=O)c2cscc2C)c1
cytotoxicity at 70.5 h: -2.28%

CC(Cn1cccn1)NC(=O)N(C)Cc1ccc(Cl)s1 (configuration not stated)
cytotoxicity at 70.5 h: -16.6%

Cc1cccc(CN2CCCC3(Cc4ccccc4CNC3=O)C2)n1 (configuration not stated)
cytotoxicity at 70.5 h: -5.77%

CC(C)c1nnsc1CNC(=O)C1CCN(C(C)C)CC1
cytotoxicity at 70.5 h: 1.46%

Cn1ccc(C(=O)NC2CCC23CCN(C(=O)N2CCCC2)CC3)c1 (configuration not stated)
cytotoxicity at 70.5 h: -1.08%

Cc1nc(CCN2CCC(Oc3ccccc3F)CC2)c(C)s1
cytotoxicity at 70.5 h: 8.34%

N#Cc1nccnc1N1CCN(CCOCc2ccccc2)CC1
cytotoxicity at 70.5 h: 16.9%

Cn1cc(CN2CCc3c(nnn3C)C2COCc2ccccc2)cn1 (configuration not stated)
cytotoxicity at 70.5 h: 32.3%

Cc1ccc(NC2CCN(C(=O)c3ccc4c(c3)CCC4)CC2)nn1
cytotoxicity at 70.5 h: -0.715%

NC(=O)c1ccc(OCC(=O)N2CCCC(n3cccn3)C2)cc1 (configuration not stated)
cytotoxicity at 70.5 h: -12%

COCCNC(=O)Cn1c(-c2ccc(Cl)cc2)nc(C)c(CCO)c1=O
cytotoxicity at 70.5 h: 3.28%

O=C(NCc1nnc2n1CCCCC2)N1CCC2(CCCCC2)C1
cytotoxicity at 70.5 h: -6.29%

CC(C)CC(=O)N1CC(=O)c2sc(Nc3ccc(C#N)cc3)nc2C1
cytotoxicity at 70.5 h: 0.0296%

O=C(Nc1cc(-c2ccccn2)no1)C1CC1
cytotoxicity at 70.5 h: 11.7%

CN(Cc1cccnc1)C1CC2(CCN(C(=O)c3cscn3)CC2)C1
cytotoxicity at 70.5 h: 8.2%

O=C(Cc1ccc(-n2cccn2)cc1)N1CCN2CCCCC2C1 (configuration not stated)
cytotoxicity at 70.5 h: 3.24%

COc1ccc(C(C#N)NC(=O)CC2=CCCCC2)c(OC)c1 (configuration not stated)
cytotoxicity at 70.5 h: -3.57%

O=C(Cn1ccc(=O)cc1)NCc1ccc2sccc2c1
cytotoxicity at 70.5 h: -7.85%

CCN(Cc1ccncc1)CC1(C)Cc2c(N)nc(N)nc2O1 (configuration not stated)
cytotoxicity at 70.5 h: -2.81%

COCCN(C)C[C@@H]1CN(c2cc(C)nc3ccccc23)C[C@@H]1CO
cytotoxicity at 70.5 h: -14.9%

Cc1[nH]c(-c2ccccc2)nc1C(=O)N1CC[C@H](CO)[C@@H](O)C1
cytotoxicity at 70.5 h: 23.4%

CN(C)C(=O)COCC1CN(Cc2cccs2)Cc2ncn(C)c21 (configuration not stated)
cytotoxicity at 70.5 h: 17.3%

C[C@@H]1CN(C(=O)C2CCOCC2)C[C@]12CCN(c1cccnc1)C2=O
cytotoxicity at 70.5 h: -6.64%

CS(=O)(=O)c1cnc(C2CCCC2)nc1C1CCCNC1 (configuration not stated)
cytotoxicity at 70.5 h: 1.49%
